Legend:
[1] = system: Streptococcus mutans; experiment: Susceptibility to gallium nitrate, MIC/MBC, microdilution broth method; assay type: cell-based, Streptococcus mutans ATCC 25175; conditions: Brain Heart Infusion broth, blood agar, 36° C. for 48 hours, 4.1 × 10^6 CFU/ml
Description: (§1) Susceptibility of various microorganisms to gallium was tested by determining the minimum inhibitory concentration (MIC) and minimum bactericidal concentration (MBC) for each microorganism using gallium nitrate. In general, MIC is determined by (i) mixing a series of broths, each containing a standard number of microorganisms, with serially diluted solutions of the gallium compound; and (ii) determining the MIC, after incubation, that is the lowest concentration of the gallium compound that has inhibited the growth of the microorganism. The lower the MIC, the more susceptible the organism is. The MBC is determined by subculturing an aliquot of each sample from the MIC test on an appropriate agar plate containing no gallium compound. After incubation, the MBC is determined to be the lowest concentration of the gallium compound at which no growth is observed.
(§2) Specifically, in the present experiment, two grams of gallium nitrate powder were dissolved in 10 ml of filter-sterilized deionized water and the resulting 20% (w/v) (i.e., 200 mg/ml) solution was once again filter-sterilized. […]
(§3) The growth of the microorganisms were determined by visual observation of turbidity in the samples. […]

[2] = system: Pseudomonas aeruginosa; experiment: Susceptibility to gallium nitrate, MIC/MBC, macrodilution broth method; assay type: cell-based, Pseudomonas aeruginosa ATCC 15442; conditions: Muller Hinton broth, tryptic soy agar with 5% sheep blood, 36° C. for 48 hours, 7.6 × 10^5 CFU/ml
[3] = system: Porphyromonas gingivalis; assay type: cell-based, Porphyromonas gingivalis ATCC 33277
[4] = system: Methicillin-resistant Staphylococcus aureus (MRSA); experiment: Susceptibility to gallium nitrate, MIC/MBC, macrodilution broth method; assay type: cell-based, Staphylococcus aureus ATCC 33592; conditions: Muller Hinton broth, tryptic soy agar with 5% sheep blood, 36° C. for 48 hours, 5.2 × 10^5 CFU/ml
[5] = system: Escherichia coli O157:H7; experiment: Susceptibility to gallium nitrate, MIC/MBC, microdilution broth method; assay type: cell-based, Escherichia coli O157:H7 ATCC 35150; conditions: Muller Hinton broth, tryptic soy agar with 5% sheep blood, 36° C. for 48 hours, 1.38 × 10^6 CFU/ml
Description: as §1, §2, §3

[6] = system: Candida albicans; experiment: as above; assay type: cell-based, Candida albicans ATCC 10231; conditions: 27° C. for 48 hours, 9.75 × 10^5 CFU/ml
Description: as §1, §2, §3

[7] = system: Vancomycin-resistant Enterococcus faecalis (VRE); experiment: Susceptibility to gallium nitrate, MIC/MBC, macrodilution broth method; assay type: cell-based, Enterococcus faecalis ATCC 51575; conditions: Muller Hinton broth, tryptic soy agar with 5% sheep blood, 36° C. for 48 hours, 3.9 × 10^5 CFU/ml
[8] = system: Campylobacter jejuni; experiment: Susceptibility to gallium nitrate, MIC/MBC, microdilution broth method; assay type: cell-based, Campylobacter jejuni ATCC 29428; conditions: Muller Hinton broth, tryptic soy agar with 5% sheep blood, 36° C. for 48 hours, 4.9 × 10^5 CFU/ml
Description: as §1, §2, §3

[9] = system: Salmonella typhi; experiment: Susceptibility to gallium nitrate, MIC/MBC, macrodilution broth method; assay type: cell-based, Salmonella typhi ATCC 6539; conditions: Muller Hinton broth, tryptic soy agar with 5% sheep blood, 36° C. for 48 hours, 8.3 × 10^5 CFU/ml
[10] = healthy adults, intravenous infusion for at least 7 days; cited from earlier work

For `O=[N+]([O-])[O-].O=[N+]([O-])[O-].O=[N+]([O-])[O-].[Ga+3]` [gallium nitrate], which MBC [1] is on record?
Its MBC is 5000 µg/mL.

What about the MBC [2] of the same compound?
The MBC was 6250 µg/mL.

What about the MBC [3] of the same compound?
The MBC was <780 µg/mL.

And the MBC [4]?
The MBC was 12500 µg/mL.

And the MBC [5]?
Its MBC is 6250 µg/mL.

And the MIC ([6]; Sabouraud Dextrose broth)?
Its MIC is 10000 µg/mL.

And the MBC ([6]; Sabouraud dextrose agar)?
Its MBC is >100000 µg/mL.

And the MBC [7]?
Its MBC is 25000 µg/mL.

What about the MBC [8] of the same compound?
Its MBC is <780 µg/mL.

And the MBC [9]?
Its MBC is 6250 µg/mL.

And the tolerated dose [10]?
Its tolerated dose is “at least 200 mg/m^2/day”.

From US10632148B2, “Growth control of oral and superficial organisms using gallium compounds” (MOUNT SINAI SCHOOL OF MEDICINE, priority 2005, dated 2020)
